Results reported in patent publication US5089623A, “Certain imidate insecticides” (Imperial Chemical Industries Plc, priority 1990, dated 1992).

Key:
Assay type in all cases: in vivo
[1] = system: Housefly [Musca domestica]; assay: Housefly insecticidal test (HF); conditions: per 25 female houseflies, 48 hours
[2] = system: Tobacco Budworm [Heliothis virescens (Fabricius)] eggs; assay: Tobacco budworm egg test (TBW-E); conditions: percent in solution
[3] = system: Cabbage Looper [Trichoplusia ni (Hubner)]; assay: Cabbage looper test (CL); conditions: second-instar larvae, 3-5 days, percent in solution
[4] = system: Aster Leafhopper [Macrosteles fascifrens (Stal)]; assay: Aster leafhopper test (LH); conditions: adults/nymphs, 48 hours, percent in solution
[5] = system: Maize weevil [Sitophilus Zeamais (Motschulsky)]; assay: Maize weevil test (MW); conditions: adult weevils, treated corn seeds, 48 hours, percent in solution
Description: The compounds in Tables 1 and 2 above were tested for insecticidal activity using the following testing procedures. LC50 values, based on the results of these tests and calculated according to dosage-mortality curves, are expressed in Table 3.
Maize weevil [Sitophilus Zeamais (Motschulsky)]
Test compounds were diluted in a 50:50 acetone:water solution. Four corn seeds [Zea mays (L.)] which had been immersed in test solutions for 2-3 seconds and allowed to dry were placed in containers together with 10 adult weevils. The containers were covered and kept at a temperature of about 25° C. Mortality was recorded after 48 hours. Test concentrations ranged from 0.01% down to that at which 50% mortalilty occurred. The LC50 values are expressed below in Table 3 under the heading "MW" in terms of percent of the test compound in solution.

Compound	LC50 HF [1] [µg]	LC50 TBW E [2] [%]	LC50 CL [3] [%]	LC50 LH [4] [%]	LC50 MW [5] [%]
CC(C)CC(=Nc1cc(Cl)cc(Cl)c1)OCc1cccc(Oc2ccccc2)c1 [Compound 10]	> 100	> 0.1	0.01	> 0.05	–
CC(C)C(=Nc1cc(Cl)cc(Cl)c1)OCc1cccc(Oc2ccccc2)c1 [Compound 16]	20	0.04	0.004	0.0005	–
CC(C)C(=Nc1cc(Cl)c(Cl)c(Cl)c1)OCc1cccc(Oc2ccccc2)c1 [Compound 20]	64	< 0.1	0.0025	0.003	–
Fc1ccc(N=C(OCc2cccc(Oc3ccccc3)c2)C(Cl)=C(Cl)Cl)cc1 [Compound 49]	> 100	> 0.05	0.007	> 0.05	–
CC(C)C(=Nc1c(F)c(F)cc(F)c1F)OCc1cccc(Oc2ccccc2)c1 [Compound 57]	> 100	0.1	0.004	0.0005	–
COc1ccc(OC)c(N=C(OCc2cccc(Oc3ccccc3)c2)C(C)C)c1 [Compound 69]	> 100	> 0.1	0.09	> 0.05	–
CC(C)C(=Nc1ccc(OC(F)(F)F)cc1)OCc1cccc(Oc2ccccc2)c1 [Compound 70]	< 100	0.01	< 0.1	> 0.05	–
CC(C)C(=Nc1ccc(C(F)(F)F)c(Cl)c1)OCc1cccc(Oc2ccccc2)c1 [Compound 83]	> 100	> 0.1	0.007	> 0.05	–
C=C(C)C(=Nc1ccc(C(F)(F)F)cc1)OCc1cccc(Oc2ccc(F)cc2)c1 [Compound 442]	< 100	0.035	0.0007	–	> 0.01
Fc1ccc(COC(=Nc2ccc(C(F)(F)F)cc2)C2CC2)cc1Oc1ccccc1 [Compound 443]	< 100	0.017	0.00015	–	< 0.01
Fc1ccc(COC(=Nc2ccc(C(F)(F)F)cc2)C2CC2)cc1Oc1ccc(Cl)cc1 [Compound 444]	> 100	0.023	0.00015	–	> 0.01
CC(C)C(=Nc1ccc(C(F)(F)F)cc1[N+](=O)[O-])OCc1ccc(F)c(Oc2ccccc2)c1 [Compound 445]	< 100	> 0.1	0.00045	–	> 0.01
CCOc1ccc(N=C(OCc2cccc(Oc3ccc(F)cc3)c2)C(C)C)cc1Br [Compound 446]	> 100	< 0.1	0.0008	–	> 0.01
CC(C)C(=Nc1ccc(F)c(I)c1)OCc1cccc(Oc2ccc(F)cc2)c1 [Compound 449]	13	0.025	0.0001	–	0.0075
CC(C)C(=Nc1cccc(C(F)(F)F)c1)OC(C)c1cccc(Oc2ccccc2)c1 (stereo not drawn) [Compound 459]	> 100	0.1	0.008	–	> 0.01
CC(C)C(=Nc1ccc(F)c(Cl)c1)OCc1cccc(Oc2c(F)c(F)c(F)c(F)c2F)c1 [Compound 460]	> 100	> 0.1	0.02	–	> 0.01
CC(C)C(=Nc1ccc(I)c(Cl)c1)OCc1cccc(Oc2ccc(Cl)cc2)n1 [Compound 471]	< 100	0.018	0.00018	–	> 0.01
CC(C)C(=Nc1cccc(C(F)(F)F)c1)OCc1cccc(Oc2ccc(Cl)cc2)n1 [Compound 477]	20	> 0.1	0.0003	–	0.0076
CC(C)C(=Nc1ccc(Br)cc1)OCc1coc(Cc2ccccc2)c1 [Compound 478]	15	> 0.1	0.0037	–	> 0.01
CC(C)C(=Nc1cccc(C(F)(F)F)c1)OCc1coc(Cc2ccccc2)c1 [Compound 482]	36	> 0.1	0.01	–	> 0.01
CC(C)C(=Nc1ccc2c(c1)OCO2)OCc1coc(Cc2ccccc2)c1 [Compound 483]	6	0.05	0.001	–	> 0.01

Compound	LC50 HF [1] [µg]	LC50 TBW E [2] [%]	LC50 CL [3] [%]	LC50 LH [4] [%]	LC50 MW [5] [%]
CC(C)C(=Nc1ccc(F)cc1F)OCc1coc(Cc2ccccc2)c1 [Compound 486]	15	> 0.1	> 0.1	–	> 0.01
COCc1c(F)c(F)c(COC(=Nc2cccc(C(F)(F)F)c2)C(C)C)c(F)c1F [Compound 503]	21	0.08	0.001	–	> 0.01
CC(C)C(=Nc1ccc(C(F)(F)F)cc1)OCc1cccc(Oc2ccccc2)n1 [Compound 504]	< 100	0.05	0.00025	–	0.01
COCc1c(F)c(F)c(COC(=Nc2ccc(F)c(Cl)c2)C(C)C)c(F)c1F [Compound 505]	14	0.09	0.0024	–	> 0.01
CC(C)C(=Nc1cccc(C(F)(F)F)c1)OCc1cc(Oc2ccccc2)ccn1 [Compound 506]	40	> 0.1	0.005	–	> 0.01
CC(C)C(=Nc1cccc(C(F)(F)F)c1)OCc1ccnc(Oc2ccccc2)c1 [Compound 507]	93	> 0.1	0.002	–	> 0.01
CC(C)C(=Nc1cccc(C(F)(F)F)c1)OCc1ccnc(Oc2ccc(F)cc2)c1 [Compound 508]	> 100	> 0.1	0.013	–	> 0.01
CC(C)C(=Nc1cccc(C(F)(F)F)c1)OCc1cc(Oc2ccc(Cl)cc2)ccn1 [Compound 509]	79	> 0.1	0.0075	–	> 0.01
CC(C)C(=Nc1ccc(F)c(Cl)c1)OCc1ccnc(Oc2ccccc2)c1 [Compound 510]	54	> 0.1	0.017	–	> 0.01
CC(C)C(=Nc1ccc(F)c(Cl)c1)OCc1ccnc(Oc2ccc(F)cc2)c1 [Compound 511]	89	> 0.1	0.0012	–	> 0.01
CC(C)C(=Nc1ccc(OC(F)(F)F)cc1)OCc1cccc(Oc2ccccc2)n1 [Compound 550]	< 100	> 0.1	0.00034	–	> 0.01
CC(C)C(=Nc1ccc(Br)c(F)c1)OCc1cccc(Oc2ccc(Cl)cc2)n1 [Compound 551]	< 100	0.035	0.00075	–	> 0.01
CCc1ccc(N=C(OCc2cccc(Oc3ccc(Cl)cc3)n2)C(C)C)cc1 [Compound 552]	> 100	> 0.1	0.0016	–	> 0.01
CC(C)C(=Nc1ccc(Cl)cc1)OCc1cccc(Oc2ccccc2)n1 [Compound 553]	< 100	0.1	< 0.1	–	> 0.01
CC(C)C(=Nc1ccc(Cl)cc1)OCc1cccc(Oc2ccc(Cl)cc2)n1 [Compound 554]	> 100	0.04	0.00075	–	> 0.01
CC(C)C(=Nc1ccc(Cl)c(C(F)(F)F)c1)OCc1cccc(Oc2ccccc2)n1 [Compound 555]	< 100	> 0.1	0.002	–	> 0.01
CC(C)C(=Nc1ccc2c(c1)OC(F)(F)O2)OCc1cccc(Oc2ccccc2)n1 [Compound 556]	< 100	0.04	0.0007	–	> 0.01
CC(C)C(=Nc1cccc(Br)c1)OCc1cccc(Oc2ccc(Cl)cc2)n1 [Compound 557]	< 100	> 0.1	0.0004	–	> 0.01
CC(C)C(=Nc1ccc(F)c(Br)c1)OCc1cccc(Oc2ccccc2)n1 [Compound 558]	< 100	> 0.1	0.00045	–	> 0.01
CC(C)C(=Nc1ccc(F)c(F)c1)OCc1cccc(Oc2ccc(Cl)cc2)n1 [Compound 559]	< 100	0.017	0.00027	–	> 0.01
C=C(C)C(=Nc1ccc(C(F)(F)F)cc1)OCc1cccc(Oc2ccc(Cl)cc2)n1 [Compound 560]	< 100	< 0.1	0.0015	–	> 0.01
